Measurements reported in ChEMBL document CHEMBL1201862, “PubChem BioAssay data set” (2004).
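Following 48 hours of exposure in 96-well plates, responses at five concentrations were used to interpolate endpoints linearly. GI50: concentration for 50% inhibition of growth.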 Active and inactive are the calls of the source. Cut-off read from the data, not from the text of the source: active = GI50 up to about 1.1 µM and inactive = higher.

Tests used:
Test in all cases: NCI anticancer screen, dose series, 48 h
OVCAR-4 = tested on: OVCAR-4
KM12 = tested on: KM12
NCI-H23 = tested on: NCI-H23
RPMI-8226 = tested on: RPMI-8226
OVCAR-5 = tested on: OVCAR-5
IGROV-1 = tested on: IGROV-1
SK-OV-3 = tested on: SK-OV-3
SF-268 = tested on: SF-268
MOLT-4 = tested on: MOLT-4
SF-539 = tested on: SF-539
M14 = tested on: M14
COLO 205 = tested on: COLO 205
NCI-H460 = tested on: NCI-H460
T47D = tested on: T47D
A549 = tested on: A549
HCT-116 = tested on: HCT-116
HCC 2998 = tested on: HCC 2998
OVCAR-3 = tested on: OVCAR-3
SK-MEL-2 = tested on: SK-MEL-2
NCI/ADR-RES = tested on: NCI/ADR-RES

| Compound | GI50 (OVCAR-4) | GI50 (KM12) | GI50 (NCI-H23) | GI50 (RPMI-8226) | GI50 (OVCAR-5) | GI50 (IGROV-1) | GI50 (SK-OV-3) | GI50 (SF-268) | GI50 (MOLT-4) | GI50 (SF-539) | GI50 (M14) | GI50 (COLO 205) | GI50 (NCI-H460) | GI50 (T47D) | GI50 (A549) | GI50 (HCT-116) | GI50 (HCC 2998) | GI50 (OVCAR-3) | GI50 (SK-MEL-2) | GI50 (NCI/ADR-RES) |
| --- | --- | --- | --- | --- | --- | --- | --- | --- | --- | --- | --- | --- | --- | --- | --- | --- | --- | --- | --- | --- |
| CSc1ccc2c(c1)C(N1CCN(C)CC1)Cc1ccccc1S2 (stereo not given) | 2.3 µM (inactive) | 2.62 µM (inactive) | 13.9 µM (inactive) | 1.91 µM (inactive) | 2.67 µM (inactive) | 2.17 µM (inactive) | 13.9 µM (inactive) | 3.43 µM (inactive) | 2.47 µM (inactive) | 6.11 µM (inactive) | 1.95 µM (inactive) | 1.98 µM (inactive) | 2.47 µM (inactive) | 8.04 µM (inactive) | 7.18 µM (inactive) | 3.84 µM (inactive) | 11.1 µM (inactive) | 8.91 µM (inactive) | 2.72 µM (inactive) | 5.56 µM (inactive) |
| O=C(CCCCCNC(=O)c1ccc(Cl)cc1)NO | 20.6 µM (inactive) | 6.59 µM (inactive) | 5.97 µM (inactive) | 3.09 µM (inactive) | 1.64 µM (inactive) | 5.16 µM (inactive) | 6.38 µM (inactive) | 6.87 µM (inactive) | 1.88 µM (inactive) | 5.55 µM (inactive) | 5.71 µM (inactive) | 2.99 µM (inactive) | 4.07 µM (inactive) | 1.41 µM (inactive) | 8.24 µM (inactive) | 2.56 µM (inactive) | 4.5 µM (inactive) | 2.55 µM (inactive) | 2.33 µM (inactive) | 1.15 µM (inactive) |
| NCCSCC(N)C(=O)O (stereo not given) | > 497 µM (inactive) | 38 µM (inactive) | > 497 µM (inactive) | 47.1 µM (inactive) | > 497 µM (inactive) | > 87.5 µM (inactive) | > 497 µM (inactive) | > 497 µM (inactive) | > 497 µM (inactive) | > 497 µM (inactive) | > 497 µM (inactive) | > 75.9 µM (inactive) | 60.1 µM (inactive) | > 83 µM (inactive) | 47.6 µM (inactive) | 39.7 µM (inactive) | > 497 µM (inactive) | > 64.9 µM (inactive) | > 497 µM (inactive) | > 100 µM (inactive) |
| C[C@H](c1ccccc1)n1c(N)c(-c2nc3ccccc3s2)c2ccc([N+](=O)[O-])cc2c1=O | 4.34 µM (inactive) | 4.45 µM (inactive) | 1.87 µM (inactive) | 0.324 µM (active) | 11.5 µM (inactive) | 8.13 µM (inactive) | 8.99 µM (inactive) | 6.27 µM (inactive) | 2.32 µM (inactive) | 16.9 µM (inactive) | 14.8 µM (inactive) | 5.43 µM (inactive) | 4.09 µM (inactive) | 1.58 µM (inactive) | 9.98 µM (inactive) | 1.91 µM (inactive) | 4.4 µM (inactive) | 4.57 µM (inactive) | 2.94 µM (inactive) | 2.84 µM (inactive) |
| O=C(NC(=O)c1c(Cl)nc2sccn12)Nc1ccc(Cl)cc1 | 75.3 µM (inactive) | > 93.5 µM (inactive) | 33.5 µM (inactive) | > 100 µM (inactive) | > 100 µM (inactive) | 49.4 µM (inactive) | 27.4 µM (inactive) | 26.2 µM (inactive) | > 100 µM (inactive) | 30 µM (inactive) | 78.3 µM (inactive) | > 100 µM (inactive) | > 85.9 µM (inactive) | 13.7 µM (inactive) | 81.3 µM (inactive) | 69.2 µM (inactive) | 54.1 µM (inactive) | 71.4 µM (inactive) | 59.3 µM (inactive) | > 70.3 µM (inactive) |
| Cn1c(=O)nc2n(CCO)c(-c3ccccc3)c(-c3ccccc3)nc-2c1=O | > 100 µM (inactive) | > 100 µM (inactive) | > 100 µM (inactive) | > 100 µM (inactive) | > 100 µM (inactive) | > 100 µM (inactive) | > 100 µM (inactive) | > 100 µM (inactive) | > 100 µM (inactive) | > 100 µM (inactive) | > 100 µM (inactive) | > 100 µM (inactive) | 39.1 µM (inactive) | > 100 µM (inactive) | > 100 µM (inactive) | > 100 µM (inactive) | > 100 µM (inactive) | > 100 µM (inactive) | > 100 µM (inactive) | > 100 µM (inactive) |
| CC(C)(C)NC1C2CCC(C)(C1O)C2(C)C (stereo not given) | > 100 µM (inactive) | > 100 µM (inactive) | > 100 µM (inactive) | > 100 µM (inactive) | > 100 µM (inactive) | > 100 µM (inactive) | > 100 µM (inactive) | > 100 µM (inactive) | > 100 µM (inactive) | > 100 µM (inactive) | > 100 µM (inactive) | > 100 µM (inactive) | > 100 µM (inactive) | > 100 µM (inactive) | > 100 µM (inactive) | > 100 µM (inactive) | > 100 µM (inactive) | > 100 µM (inactive) | > 100 µM (inactive) | > 100 µM (inactive) |
| O=c1oc2ccc3ccccc3c2cc1-c1cn2ccsc2n1 | 19.6 µM (inactive) | 20.6 µM (inactive) | 25.2 µM (inactive) | 11.5 µM (inactive) | 24.9 µM (inactive) | 0.646 µM (active) | > 100 µM (inactive) | 24.8 µM (inactive) | 3.41 µM (inactive) | 20.7 µM (inactive) | 24 µM (inactive) | 16.1 µM (inactive) | 51.5 µM (inactive) | 13 µM (inactive) | 49.9 µM (inactive) | 16 µM (inactive) | 16.7 µM (inactive) | 17.9 µM (inactive) | > 100 µM (inactive) | 29.1 µM (inactive) |
| COc1cccc(/N=N/C(=NNC(=O)c2ccc(C)cc2)c2ccc(N(C)C)cc2)c1 | > 100 µM (inactive) | > 100 µM (inactive) | > 100 µM (inactive) | > 100 µM (inactive) | > 100 µM (inactive) | > 100 µM (inactive) | > 100 µM (inactive) | > 100 µM (inactive) | > 100 µM (inactive) | > 100 µM (inactive) | > 100 µM (inactive) | 44.3 µM (inactive) | > 100 µM (inactive) | 0.832 µM (active) | > 100 µM (inactive) | > 100 µM (inactive) | > 100 µM (inactive) | 65.2 µM (inactive) | > 100 µM (inactive) | > 100 µM (inactive) |
| C=C1C(=O)O[C@H]2[C@H]3O[C@@H](C[C@@H]12)[C@](C)(O)CC[C@@H]1O[C@@]1(C)CCC[C@H]3C | 16.5 µM (inactive) | 20 µM (inactive) | 16.4 µM (inactive) | 47.2 µM (inactive) | 36.2 µM (inactive) | 14.7 µM (inactive) | 29.4 µM (inactive) | 15.6 µM (inactive) | 30.3 µM (inactive) | 18.7 µM (inactive) | 12 µM (inactive) | 16.4 µM (inactive) | 24.8 µM (inactive) | 25.5 µM (inactive) | 25.5 µM (inactive) | 14.2 µM (inactive) | 25.8 µM (inactive) | 16.7 µM (inactive) | 15.9 µM (inactive) | 26.9 µM (inactive) |
